{"source": "patent US7897620B2", "about": "“Methods of using anti-inflammatory compounds” (Cambridge Enterprise Limited, priority 2007, dated 2011)", "key": {"[1]": {"tested_on": "IL-8 induced neutrophil migration", "experiment": "ChemoTx transwell migration assay, IL-8 induced migration of neutrophils", "type": "cell-based", "details": "maximal dose of chemoattractant, read-out: ED50 IL-8 neutrophils", "procedure": "In principle, this assay consists of two chambers separated by a porous membrane. The chemoattractant is placed in the lower compartment and the cells are placed in the upper compartment. After incubation for a period at 37° C. the cells move towards the chemoattractant, and the number of cells in the lower compartment is proportional to the chemoattractant activity (relative to a series of controls).\nNext, the chemoattractant solution to be placed in the lower compartment is prepared. For example, MCP-1 is diluted in GBSS+BSA to give a final concentration of 25 ng/ml. This is divided into two pots, as for the cell suspension. To one pot, the test compound is added to the same final concentration as was added to the cell suspension, while to the other pot an equal volume of GBSS+BSA plus vehicle as appropriate (e,g. not more than 1% DMSO) is added. Alternatively, other chemokines may be used (SDF-1α at 7.5 ng/ml; RANTES at 50 ng/ml; IL-8 at 10 ng/ml using neutrophils as the target cell population). In each case it is important to determine (in a separate experiment) the concentration of each chemokine which causes maximal stimulation of migration of the chosen target leukocyte population. […]\nThe number of cells migrated into the lower chamber under each condition can then be determined by a number of methods, including direct counting, labelling with fluorescent or radioactive markers or through the use of a vital dye. […] 3 μl of stock MTT solution are added to each well, and then the plate is incubated at 37° C. for 1-2 hours during which time dehydrogenase enzymes within the cells convert the soluble MTT to an insoluble blue formazan product that can be quantified spectrophotometrically. […]\nAt the end of this incubation, the liquid is carefully removed from the lower chambers, taking care not to disturb the precipitated formazan product. After allowing to air dry briefly, 20 μl of DMSO is added to each lower chamber to solubilise the blue dye, and absorbance at 595 nm is determined using a 96-well plate reader. […]"}, "[2]": {"experiment": "Identification of the primary metabolites in pooled 24 h urine (LC-MS-MS full scan)", "type": "in vivo", "details": "rat, single oral dose 3 mg/kg in 1% CMC, qualitative", "procedure": "Urine was collected from rats exposed to a single oral dose (3 mg/kg in 1% CMC) of each compound over a 24 hour period in metabolic cages. The pooled urine sample was then subjected to full scan mass spectral analysis, using the same LC-MS conditions as described in example 1 above. Further MS-MS analysis of the product ions was then performed, and likely fragmentations/re-arrangements assigned from the publicly available Metabolite ID database.\nFor the major metabolites, the assigned structures were confirmed by synthesis of authentic samples, using methods well known in the art, which were subject to LC-MS-MS analysis under the same conditions as the urine samples.\nNote that metabolite ID studies provide only qualitative estimates of the relative amounts of the different metabolites present, and separately validated assays with appropriate internal standards would be required to quantitate each metabolite species.\nThe detected metabolites, in rank order of concentration detected are shown in FIG. 2 for the five compounds analysed. It is important to note that the methodology used here is not necessarily exhaustive, and further (particularly minor) metabolites may also be present which were below the detection limits for the methods applied here. As a general rule, it can be assumed that metabolites representing 10% or more of the injected dose will be detected (though not necessarily structurally identified) by the methods used here)."}, "[3]": {"tested_on": "S. Typhinurium (TA 102, TA98 and TA 100)", "experiment": "AMES test, revertant colony formation", "type": "cell-based", "details": "for Revertant colony formation TA98 + S9: TA98 with S9, top dose 5 mg/ml; for Revertant colony formation TA98: TA98 without S9, top dose 5 mg/ml; for Revertant colony formation TA100 + S9: TA100 with S9 rat liver microsomal system, top dose 5 mg/ml; for Revertant colony formation TA100: TA100 without S9, top dose 5 mg/ml; for Revertant colony formation TA102 + S9: TA102 with S9, top dose 5 mg/ml; for Revertant colony formation TA102: TA102 without S9, top dose 5 mg/ml", "procedure": "The five compounds were subjected to a standard AMES test to assess likely genotoxicity. Three His-auxotroph strains of S. Typhinurium (TA 102, TA98 and TA 100) were treated with each of the compounds at 5 concentrations (up to 5 mg/ml) in the presence and absence of S9 rat liver microsomal metabolising system. The number of revertant colonies was then determined by plating on trace-His minimal media."}}, "note": "Marks after values point to notes of the source that are not given here."}
{"smiles": "O=C1NCCCC[C@@H]1NC(=O)C12CC3CC(CC(C3)C1)C2", "note": "[(II), 3-(adamantane-1-carbonylamino)-caprolactam]", "values": [{"measurement": "EC50", "setting": "[1]", "result": 0.6, "unit": "nM"}, {"measurement": "major metabolite / route of metabolism detected in urine", "setting": "[2]", "result": "cytochrome P450-mediated hydroxylation"}, {"measurement": "Revertant colony formation TA98 + S9", "setting": "[3]", "result": "0.60*"}, {"measurement": "Revertant colony formation TA98", "setting": "[3]", "result": "0.58*"}, {"measurement": "Revertant colony formation TA100 + S9", "setting": "[3]", "result": 0.73}, {"measurement": "Revertant colony formation TA100", "setting": "[3]", "result": "0.59*"}, {"measurement": "Revertant colony formation TA102 + S9", "setting": "[3]", "result": 0.93}, {"measurement": "Revertant colony formation TA102", "setting": "[3]", "result": "0.50*"}]}
{"smiles": "CC(C)(C)S(=O)(=O)N[C@H]1CCCCNC1=O", "note": "[(IV), 3-(1′,1′-dimethylethylsulfonylamino)-caprolactam]", "values": [{"measurement": "major metabolite / route of metabolism detected in urine", "setting": "[2]", "result": "the major metabolite could not be identified"}, {"measurement": "Revertant colony formation TA98 + S9", "setting": "[3]", "result": 0.90}, {"measurement": "Revertant colony formation TA98", "setting": "[3]", "result": 0.82}, {"measurement": "Revertant colony formation TA100 + S9", "setting": "[3]", "result": 0.90}, {"measurement": "Revertant colony formation TA100", "setting": "[3]", "result": 0.89}, {"measurement": "Revertant colony formation TA102 + S9", "setting": "[3]", "result": 0.88}, {"measurement": "Revertant colony formation TA102", "setting": "[3]", "result": 0.85}]}
{"smiles": "O=C1NCCCC[C@@H]1NC(=O)C12CC3CC(CC(O)(C3)C1)C2", "note": "[(V), 3-(3′-hydroxyadamantyl-1-carbonylamino)-caprolactam]", "values": [{"measurement": "EC50", "setting": "[1]", "result": 0.5, "unit": "nM"}, {"measurement": "major metabolite / route of metabolism detected in urine", "setting": "[2]", "result": "the glucuronidated compound was the major metabolite"}, {"measurement": "Revertant colony formation TA98 + S9", "setting": "[3]", "result": 0.91}, {"measurement": "Revertant colony formation TA98", "setting": "[3]", "result": 0.96}, {"measurement": "Revertant colony formation TA100 + S9", "setting": "[3]", "result": 0.88}, {"measurement": "Revertant colony formation TA100", "setting": "[3]", "result": 0.78}, {"measurement": "Revertant colony formation TA102 + S9", "setting": "[3]", "result": 1.09}, {"measurement": "Revertant colony formation TA102", "setting": "[3]", "result": 0.93}]}
{"smiles": "CC(C)(C)C(=O)N[C@H]1CCCNC1=O", "note": "[Compound (I′), 3-(2′,2′-dimethylpropanoylamino)-tetrahydropyridin-2-one]", "values": [{"measurement": "EC50", "setting": "[1]", "result": 0.6, "unit": "nM"}, {"measurement": "major metabolite / route of metabolism detected in urine", "setting": "[2]", "result": "no significant metabolites of (I′) were detected in urine"}, {"measurement": "Revertant colony formation TA98 + S9", "setting": "[3]", "result": 1.23}, {"measurement": "Revertant colony formation TA98", "setting": "[3]", "result": "2.00**"}, {"measurement": "Revertant colony formation TA100 + S9", "setting": "[3]", "result": 0.95}, {"measurement": "Revertant colony formation TA100", "setting": "[3]", "result": 0.97}, {"measurement": "Revertant colony formation TA102 + S9", "setting": "[3]", "result": 0.93}, {"measurement": "Revertant colony formation TA102", "setting": "[3]", "result": 0.82}]}
